Patent publication US10981894B2, “Melanocortin subtype-2 receptor (MC2R) antagonists and uses thereof” (Crinetics Pharmaceuticals, Inc., priority 2018, dated 2021)

Target: hMC2 receptor (Homo sapiens, UniProt Q01718)
Test: hMC2 membrane binding assay ([125I]ACTH (1-39) Tyr23, SPA)
Design: scale not given here
Settings: crude hMC2R membranes from CRE-bla-CHO-K1 cells expressing hMC2 receptor and hMRAP; [125I]ACTH (1-39) Tyr23 0.2 nM; 1.5 hours at room temperature; read-out: MC2R binding potency
Summary of the method: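 CRE-bla-CHO-K1 membranes co-expressing hMC2 receptor and hMRAP, preincubated with WGA PVT SPA beads in pH 7.4 HEPES/MgCl2/CaCl2/0.2% BSA buffer. Compounds (typically 0–10,000 nM final) compete with 0.2 nM [125I]ACTH(1-39) Tyr23 for 1.5 h at room temperature. SPA counts give Ki by non-linear regression.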

hMC2 receptor, sequence (Q01718 whole entry): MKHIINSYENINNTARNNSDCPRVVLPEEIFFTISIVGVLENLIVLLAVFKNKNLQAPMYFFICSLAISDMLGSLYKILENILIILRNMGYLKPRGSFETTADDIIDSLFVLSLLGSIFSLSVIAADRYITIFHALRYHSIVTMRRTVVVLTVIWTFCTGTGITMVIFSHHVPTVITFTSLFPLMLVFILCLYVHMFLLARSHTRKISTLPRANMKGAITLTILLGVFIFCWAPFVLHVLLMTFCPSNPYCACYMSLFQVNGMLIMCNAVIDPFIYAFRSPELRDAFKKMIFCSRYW
hMC2 receptor, sequence (Q8TCY5 whole entry partner): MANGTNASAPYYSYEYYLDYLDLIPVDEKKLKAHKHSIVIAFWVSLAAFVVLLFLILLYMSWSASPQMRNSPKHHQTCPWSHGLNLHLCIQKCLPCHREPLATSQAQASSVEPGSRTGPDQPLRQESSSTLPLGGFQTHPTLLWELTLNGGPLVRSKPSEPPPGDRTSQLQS

Ki | SMILES
< 10 nM | CCOc1ncccc1-c1ccc(N2CCN(C(=O)c3ccc(C)cc3C)C[C@H]2CC)c(C(=O)NCCN)c1 [Compound 1-60, N-(2-aminoethyl)-2-[(2R)-4-(2,4-dimethylbenzoyl)-2-ethylpiperazin-1-yl]-5-(2-ethoxypyridin-3-yl)benzamide]
< 10 nM | CCOc1ncccc1-c1ccc(N2CCN(C(=O)c3ccc(Cl)cc3C(F)(F)F)C[C@H]2CC)c(C(=O)NC[C@@H]2CCCN2)c1 [Compound 1-98, 2-[(2R)-4-[4-chloro-2-(trifluoromethyl)benzoyl]-2-ethylpiperazin-1-yl]-5-(2-ethoxypyridin-3-yl)-N-{[(2S)-pyrrolidin-2-yl]methyl}benzamide]
10 to 100 nM | CC[C@@H]1CN(C(=O)c2ccc(C(F)(F)F)cc2Cl)CCN1c1ccc(-c2ccccc2C(=O)NC)cc1C(=O)NCCN [Compound 1-20, (R)-N3′-(2-aminoethyl)-4′-(4-(2-chloro-4-(trifluoromethyl)benzoyl)-2-ethylpiperazin-1-yl)-N2-methyl-[1,1′-biphenyl]-2,3′-dicarboxamide]
< 10 nM | CCOc1ncccc1-c1ccc(N2CCN(C(=O)N3CCC[C@H]3C(F)(F)F)C[C@H]2CC)c(C(=O)NC[C@@H]2CCN2C)n1 [Compound 1-391, 2′-ethoxy-5-[(2R)-2-ethyl-4-[(2S)-2-(trifluoromethyl)pyrrolidine-1-carbonyl]piperazin-1-yl]-N-{[(2S)-1-methylazetidin-2-yl]methyl}-[2,3′-bipyridine]-6-carboxamide]
10 to 100 nM | CC[C@@H]1CN(C(=O)c2ccc(C(F)(F)F)cc2Cl)CCN1c1ccc(-c2ccccc2F)cc1C(=O)NCCN [Compound 1-4, N-(2-aminoethyl)-4-[(2R)-4-[2-chloro-4-(trifluoromethyl)benzoyl]-2-ethylpiperazin-1-yl]-2′-fluoro-[1,1′-biphenyl]-3-carboxamide]
< 10 nM | CCOc1ccccc1-c1ccc(N2CCN(C(=O)[C@H]3CC[C@@H](C(F)(F)F)CC3)C[C@H]2CC)c(C(=O)N[C@@H]2CCN(C)C2)n1 [Compound 1-336, 6-(2-ethoxyphenyl)-3-[(2R)-2-ethyl-4-[cis-4-(trifluoromethyl)cyclohexanecarbonyl]piperazin-1-yl]-N-[(3R)-1-methylpyrrolidin-3-yl]pyridine-2-carboxamide]
< 10 nM | CCOc1ncccc1-c1ccc(N2CCN(C(=O)N3CCc4cccc(C#N)c43)C[C@H]2CC)c(C(=O)N[C@@H]2CCN(C)C2)n1 [Compound 1-383, 5-[(2R)-4-(7-cyano-2,3-dihydro-1H-indole-1-carbonyl)-2-ethylpiperazin-1-yl]-2′-ethoxy-N-[(3R)-1-methylpyrrolidin-3-yl]-[2,3′-bipyridine]-6-carboxamide]
< 10 nM | CCOc1ncccc1-c1ccc(N2CCN(C(=O)c3ccc(Cl)cc3C(F)F)C[C@H]2CC)c(C(=O)NCCNC)n1 [Compound 1-213, 5-[(2R)-4-[4-chloro-2-(difluoromethyl)benzoyl]-2-ethylpiperazin-1-yl]-2′-ethoxy-N-[2-(methylamino)ethyl]-[2,3′-bipyridine]-6-carboxamide]
< 10 nM | CCOc1ccccc1-c1ccc(N2CCN(C(=O)c3ccc(Cl)cc3Cl)C[C@H]2CC)c(C(=O)NCCN)c1 [Compound 1-15, (R)-N-(2-aminoethyl)-4-(4-(2,4-dichlorobenzoyl)-2-ethylpiperazin-1-yl)-2′-ethoxy-[1,1′-biphenyl]-3-carboxamide]
< 10 nM | CCOc1ncccc1-c1ccc(N2CCN(C(=O)N3CCC[C@H]3C(C)(C)F)C[C@H]2CC)c(C(=O)N[C@@H]2CCN(C)C2)n1 [Compound 1-413, 2′-ethoxy-5-[(2R)-2-ethyl-4-[(2S)-2-(2-fluoropropan-2-yl)pyrrolidine-1-carbonyl]piperazin-1-yl]-N-[(3R)-1-methylpyrrolidin-3-yl]-[2,3′-bipyridine]-6-carboxamide]
< 10 nM | CCOc1ncccc1-c1ccc(N2CCN(C(=O)c3ccc(Cl)cc3C(F)(F)F)C[C@H]2CC)c(C(=O)N[C@H]2CCCNC2)c1 [Compound 1-100, 2-[(2R)-4-[4-chloro-2-(trifluoromethyl)benzoyl]-2-ethylpiperazin-1-yl]-5-(2-ethoxypyridin-3-yl)-N-[(3 S)-piperidin-3-yl]benzamide]
< 10 nM | CCOc1ccc(C(=O)N2CCN(c3ccc(-c4cccnc4OC)nc3C(=O)NC3CN(C)C3)[C@H](CC)C2)c(C(F)(F)F)n1 [Compound 1-247, 5-[(2R)-4-[6-ethoxy-2-(trifluoromethyl)pyridine-3-carbonyl]-2-ethylpiperazin-1-yl]-2′-methoxy-N-(1-methylazetidin-3-yl)-[2,3′-bipyridine]-6-carboxamide]
< 10 nM | CCOc1ncccc1-c1ccc(N2CCN(C(=O)c3ccc(F)cc3C(F)(F)F)C[C@H]2CC)c(C(=O)NCCNC)n1 [Compound 1-136, 2′-ethoxy-5-[(2R)-2-ethyl-4-[4-fluoro-2-(trifluoromethyl)benzoyl]piperazin-1-yl]-N-[2-(methylamino)ethyl]-[2,3′-bipyridine]-6-carboxamide]
< 10 nM | CCOc1ncccc1-c1ccc(N2CCN(C(=O)c3ccc(Cl)cc3C(F)(F)F)C[C@H]2CC)c(C(=O)N[C@H]2CCNC2)c1 [Compound 1-92, 2-[(2R)-4-[4-chloro-2-(trifluoromethyl)benzoyl]-2-ethylpiperazin-1-yl]-5-(2-ethoxypyridin-3-yl)-N-[(3S)-pyrrolidin-3-yl]benzamide]
< 10 nM | CCOc1ccccc1-c1ccc(N2CCN(C(=O)c3ccc(C(F)(F)F)cc3Cl)C[C@H]2CC)c(CNC[C@H](C)O)c1 [Compound 2-2, (2S)-1-[({4-[(2R)-4-[2-chloro-4-(trifluoromethyl)benzoyl]-2-ethylpiperazin-1-yl]-2′-ethoxy-[1,1′-biphenyl]-3-yl}methyl)amino]propan-2-ol]
< 10 nM | CCOc1ncccc1-c1ccc(N2CCN(C(=O)n3ccc4cc(F)cc(Cl)c43)C[C@H]2CC)c(C(=O)N[C@@H]2CCN(C)C2)n1 [Compound 1-425, 5-[(2R)-4-(7-chloro-5-fluoro-1H-indole-1-carbonyl)-2-ethylpiperazin-1-yl]-2′-ethoxy-N-[(3R)-1-methylpyrrolidin-3-yl]-[2,3′-bipyridine]-6-carboxamide]
< 10 nM | CCOc1ncccc1-c1ccc(N2CCN(C(=O)C3(C(F)(F)F)CCC3)C[C@H]2CC)c(C(=O)N[C@@H]2CCN(C)C2)n1 [Compound 1-283, 2′-ethoxy-5-[(2R)-2-ethyl-4-[1-(trifluoromethyl)cyclobutanecarbonyl]piperazin-1-yl]-N-[(3R)-1-methylpyrrolidin-3-yl]-[2,3′-bipyridine]-6-carboxamide]
< 10 nM | CCOc1ncccc1-c1ccc(N2CCN(C(=O)c3ccc(Cl)cc3C(F)(F)F)C[C@H]2CC)c(CN)n1 [Compound 2-13, 1-{5-[(2R)-4-[4-chloro-2-(trifluoromethyl)benzoyl]-2-ethylpiperazin-1-yl]-2′-ethoxy-[2,3′-bipyridin]-6-yl}methanamine]
< 10 nM | CCOc1ccccc1-c1ccc(N2CCN(C(=O)c3ccc(OC)nc3C(F)(F)F)C[C@H]2CC)c(C(=O)N[C@@H]2CCN(C)C2)n1 [Compound 1-253, 6-(2-ethoxyphenyl)-3-[(2R)-2-ethyl-4-[6-methoxy-2-(trifluoromethyl)pyridine-3-carbonyl]piperazin-1-yl]-N-[(3R)-1-methylpyrrolidin-3-yl]pyridine-2-carboxamide]
